Consider four compounds from patent US10533018B2, “Antimicrobial prochelators to target drug-resistant bacteria and methods of making and using the same” (Duke University, priority 2015, dated 2020).

Where two headings read alike, the source gives them in different places. A value given as a limit tells only on which side of the number the result lay.

Data set [1] deals with Methicillin-Resistant Staphylococcus aureus (MRSA). In words: microbe, parasite or virus in culture. Format: cell-based. The text has this:
Bacterial culture reagents including LB broth (Lennox), agar-agar, ampicillin, and ceftriaxone were purchased from Sigma Aldrich Corp. The Escherichia coli (E. coli) K12 strain HB101 and pGLO E. coli transformation kit purchased from Bio-Rad Laboratories Inc. HB101 was transformed with the bla gene via the pGLO plasmid. The bla gene encodes for a TEM-1 β-lactamase that imparts penicillin resistance to the mutant E. coli K-12 strain (+Bla). Strains E. coli UTI89, [27] pCOM-GFP-transformed E. coli UTI89 (pCOM-GFP), [28] and Methicillin-Resistant Staphylococcus aureus (MRSA) clone USA300 [29] have been previously described. The Extended-Spectrum β-Lactamase (ESBL) E. coli, Klebsiella pneumonia (Klebs), and Pseudomonas aeruginosa (Pseudo) strains were clinical isolates acquired deidentified from Duke Hospital and tested for antibiotic susceptibility in the Clinical Microbiology Laboratory using standard clinical susceptibility methods.
Cultures were incubated on LB (Lennox, Sigma) agar at 37° C. in ambient atmospheric composition. Before beginning an experiment, a single bacterial colony grown on LB agar was resuspended in 2 mL LB broth and incubated overnight to form a turbid cell suspension. The overnight culture was diluted 1:100 in LB and used immediately as the working culture. To assess the antibacterial activity of compounds, the working bacterial culture was aliquoted in a clear, flat-bottomed, 96-well polystyrene plate (Costar) and the compound of interest was added in 2-fold serial dilution from 500 to 1 μM. Plates were covered with a breathable sealing film (Aeroseal, Genesee Scientific) and incubated at 37° C. in ambient atmospheric composition with shaking at 200 rpm. Optical density at 600 nm was recorded after 4 h and 20 h for each well using a standard OD600 protocol with LB serving as the blank. The resulting dose-response curves were fit to a nonlinear regression in GraphPad Prism Version 6 to calculate the IC50 of DB4-51 in each strain.
The ability of DB4-162 to inhibit bacterial growth was assessed by a traditional broth microdilution method that assesses the turbidity of liquid cultures in the presence of varying concentrations of the compound. As described above for DB4-51, the antibacterial properties of the prochelator DB4-162 were assessed in non-pathogenic lab-strain HB101K-12 E. coli and compared to the pGLO-transfected mutant HB101K-12 E. coli that express β-lactamase. Clinically relevant pathogenic bacteria were also screened, including UTI89 E. coli, pCOM transfected UTI89 E. coli (pCOM), extended spectrum β-lactamase (ESBL) E. coli, methicillin-resistant Staphylococcus aureus (MRSA), and Klebsiella pneumonia (Klebs). In addition to being naturally resistant to many β-lactam antibiotics, MRSA can produce a number of β-lactamases. […] It should be noted that all of the bacteria tested are gram-negative except for gram-positive MRSA.
The goal of this screen was to calculate the IC50 of the prochelator in a series of pathogenic bacteria and compare these values to the IC50 of known antibiotics in those same strains to determine the relative effectiveness of DB4-162 against the drug-resistant and drug-susceptible bacteria in comparison to current antibiotic treatment options. Bacterial growth was monitored in LB broth at 37° C. in the presence and absence of DB4-162 for 20 hours. A concentration gradient of DB4-162 from 500 to 0 μM was used to screen all 7 strains of bacteria and the dose-response curves were fit to a […] to calculate the IC50 of DB4-162 in each strain. These IC50 values are an approximation of how effectively DB4-162 inhibits the growth of each bacterial strain in vitro.
IC50 values for ampicillin were calculated via broth microdilution in LB broth only. Values are listed as the mean followed by the 95% confidence interval about the mean. Mean and confidence intervals were calculated from a variable slope, nonlinear regression fit to the dose-response OD600 data. […]

For data set [2], the system named is HepG2 human liver epithelial cells.
Protocol: (§1) CellTox Green LDH Cytotoxicity Detection Kit was purchased from Promega. Cell lines were purchased from the ATCC. All work was performed in a laminar-flow hood using sterile techniques. […] After splitting and counting, black, clear bottom 96-well plates were seeded at a density of 15,000 cells/well and incubated overnight at 37° C. in a fully humidified atmosphere containing 5% CO2. […] Untreated cells served as the negative control while wells containing untreated cells incubated with 1% Triton X-100 served as the positive control.
(§2) Using a cytotoxicity assay, the viability of mammalian cells was monitored as a function of their membrane integrity.
Data set [3] has as its system CCD-19Lu human lung fibroblast cells.
Protocol: as §1, §2
Data set [4] concerns +Bla K-12 E. coli. Format: cell-based, Escherichia coli. The note with it: 1 h, ICP-MS; for increase in cell-associated copper over the CuCl2 control: 10 μM compound + 10 μM supplemental CuCl2; for changes in cell-associated copper, iron, or zinc vs untreated control: 2.5-10 μM compound alone. The method, then: PT is recognized as an ionophore that shuttles metals across cell membranes and thereby disrupts cellular metal homeostasis. […] To test this hypothesis, inductively-coupled plasma mass spectrometry (ICP-MS) was used to measure the concentration of cell-associated copper, iron, and zinc for +Bla K-12 E. coli grown under a variety of conditions. Untreated E. coli grown in LB media were compared to those incubated for one hour in LB containing 0, 2.5, 5, or 10 μM DB4-51 or PT with and without 10 μM supplemental CuCl2. The concentrations of cell-associated metals in +Bla E. coli grown in these conditions are reported as a ratio against bacterial growth as measured by the OD600 reading at the time of sampling.
FIG. 6: Cellular metal concentrations of +Bla K-12 E. coli. Cultures of +Bla K-12 E. coli were incubated for 1 h in LB media, LB containing no treatment, 10 μM added CuCl2, and DB4-51 (top) or PT (bottom) at indicated concentrations in the absence or presence of 10 μM CuCl2. Metal contents of cell pellets were analysed via ICP-MS and reported as a function of OD600.

[5] abbreviates: Staphylococcus aureus, LB + 500 μM BCS.
The mark [6] stands for this setting: concentrations below 500 μM, 24 hour.

`CC1(C)S[C@@H]2[C@H](NC(=O)[C@H](N)c3ccccc3)C(=O)N2[C@H]1C(=O)O` [Ampicillin]: the IC50 in data set [1] (LB broth) was > 250000 nM.
In the case of `O=C(Cc1ccccc1)N[C@@H]1C(=O)N2C(C(=O)O)=C(CSc3cccc[n+]3[O-])CS[C@H]12` [DB4-51, 2-((((6R,7R)-2-carboxy-8-oxo-7-(2-phenylacetamido)-5-thia-1-azabicyclo[4.2.0]oct-2-en-3-yl)methyl)thio)pyridine 1-oxide], the LD50 in data set [2] (24 h) and in data set [3] (24 h) was > 500 µM each time. For the same compound, in data set [2] (at 500 μM, 24 h), the cell death result is recorded as “more than 50%”. Besides, the cytotoxicity entry was “non-toxic” in data set [2] (below 250 μM, 24 h) and “non-toxic” in data set [3] (below 250 μM, 24 h). Besides, the “change in IC50 value as a function of Cu availability” value in data set [1] (Cu-replete vs Cu-limited) is listed as 55 fold. The “increase in cell-associated copper over the CuCl2 control” value in data set [4] is “slight but statistically insignificant increase”. In addition, in data set [4], the “changes in cell-associated copper, iron, or zinc vs untreated control” value was “no significant changes”.
As to `Cc1csc(=S)n1OCC1=C(C(=O)O)N2C(=O)[C@@H](NC(=O)Cc3ccccc3)[C@H]2SC1` [DB4-162, (6R,7R)-3-(((4-methyl-2-thioxothiazol-3(2H)-yl)oxy)methyl)-8-oxo-7-(2-phenylacetamido)-5-thia-1-azabicyclo[4.2.0]oct-2-ene-2-carboxylic acid], the IC50 in data set [1] (Staphylococcus aureus, LB + 10 μM CuCl2) worked out at 2700 nM; in data set [1] (setting [5]), 2400 nM; in data set [1] (Staphylococcus aureus, LB broth), 2400 nM.
`[O-][n+]1ccccc1S` [PT, 2-mercaptopyridine N-oxide]: in data set [2] (setting [6]), the cell death is ≤ 50%. Moreover, the cell death in data set [3] (setting [6]) was ≤ 50%. In data set [1] (setting [5]), the IC50 worked out at 11 nM. Also, in data set [4], the “increase in cell-associated copper over the CuCl2 control” value was determined as 30 fold and the “changes in cell-associated copper, iron, or zinc vs untreated control” value is “no significant changes”.
